“And” between values parts separate entries of the source, which are not always exact repeats. Equal entries are not always repeated.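 Grown in 96-well plates, cells were treated for 48 hours with each compound at five concentrations. Insufficient inhibition: endpoint recorded as highest concentration tested. GI50 marks 50% less growth. Definition used: TGI = concentration required for complete inhibition of growth.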
What was measured:
Test in all cases: DTP human tumour cell line panel, 48 h
HCC-2998 colon = system: HCC-2998 colon
HCT-116 colon = system: HCT-116 colon
HCT-15 colon = system: HCT-15 colon
HOP-62 NSCLC = system: HOP-62 NSCLC
HOP-92 NSCLC = system: HOP-92 NSCLC
IGROV1 ovarian = system: IGROV1 ovarian
K-562 leukemia = system: K-562 leukemia
KM12 colon = system: KM12 colon
MDA-MB-435 = system: MDA-MB-435
U251 CNS = system: U251 CNS

Structure (SMILES)	GI50 (HCC-2998 colon)	TGI (HCC-2998 colon)	GI50 (HCT-116 colon)	TGI (HCT-116 colon)	GI50 (HCT-15 colon)	TGI (HCT-15 colon)	GI50 (HOP-62 NSCLC)	TGI (HOP-62 NSCLC)	GI50 (HOP-92 NSCLC)	TGI (HOP-92 NSCLC)	GI50 (IGROV1 ovarian)	TGI (IGROV1 ovarian)	GI50 (K-562 leukemia)	TGI (K-562 leukemia)	GI50 (KM12 colon)	TGI (KM12 colon)	GI50 (MDA-MB-435)	TGI (MDA-MB-435)	GI50 (U251 CNS)	TGI (U251 CNS)
C=C1C(=O)O[C@H]2[C@H]1CC/C(CNC(=O)/C=C/c1ccc(Cl)cc1Cl)=C\CC[C@@]1(C)O[C@@H]21	1.56 µM	2.98 µM	0.647 µM	2 µM	1.01 µM	2.33 µM	1.74 µM	4.06 µM	0.483 µM	2.52 µM	1.63 µM	3.41 µM	0.696 µM	4.16 µM	1.62 µM	3.03 µM	0.444 µM	1.74 µM	1.65 µM	3.14 µM
Cc1c(C(N)=O)sc2c1c(=O)n(Cc1ccccc1)c1nnc(S(=O)(=O)CC(=O)Nc3ccc(Cl)cc3)n21	18.7 µM	> 100 µM	2.1 µM	5.22 µM	38.6 µM	> 100 µM	2.51 µM	5.99 µM	2.26 µM	6.63 µM	8.57 µM	24.3 µM	15 µM	55.2 µM	4.54 µM	16.2 µM	3.61 µM	17 µM	1.99 µM	4.25 µM
CN(CCCN(C)CCC1CCCCC1)CCC1CCCCC1	1.6 µM	3.23 µM	2.52 µM	7.45 µM	2.02 µM	8.21 µM	5.3 µM	17.7 µM	0.687 µM	5.72 µM	1.09 µM	5.54 µM	1.97 µM	7.02 µM	2.04 µM	4.12 µM	0.755 µM	2.27 µM	1.97 µM	7.48 µM
CCN(CC)CCC(=O)O[C@H]1CC[C@H](CC(C)[C@H]2CC(=O)C(C)C=C(C)[C@H](OC(=O)CCN(CC)CC)C(OC)C(=O)[C@@H](C)CC(C)/C=C/C=C/C=C(C)C(OC)CC3CC[C@H](C)[C@](O)(O3)C(=O)C(=O)N3CCCCC3C(=O)O2)CC1OC (stereo partly specified)	1.03 µM	2.29 µM and 2.04 µM	1.24 µM	2.57 µM and 2.54 µM	0.0922 µM	4.46 µM and 3.84 µM	0.00257 µM and 0.00547 µM	1.73 µM and 2.75 µM	0.025 µM	4.31 µM and 1.62 µM	0.00595 µM	1.81 µM and 1.74 µM		5.2 µM and 3.65 µM		> 10 µM and 2.03 µM	1.14 µM	2.35 µM and 2.04 µM	1.13 µM	2.34 µM and 1.9 µM
O=C1COCCN1c1ccc(NCc2cn(C(=O)c3ccc(Cl)cc3)c3ccccc23)cc1	12.1 µM	88.4 µM	0.247 µM	19.8 µM	4.07 µM	91.2 µM	1.06 µM	> 100 µM	1.66 µM	15 µM	0.252 µM	8.51 µM	1.84 µM	17 µM	13.7 µM	> 100 µM	16.4 µM	50.1 µM	1.19 µM	25.8 µM
O=C(NN1C(=O)CSC12CCC(c1ccccc1)CC2)c1[nH]c2ccc(F)cc2c1-c1ccccc1 (stereo unspecified)	14.9 µM	28.3 µM	14 µM	27.1 µM	16.6 µM	32.7 µM	18.3 µM	34.7 µM	17.2 µM	34.5 µM	13 µM	25.7 µM	23.7 µM	62.9 µM	16 µM	30.7 µM	18.8 µM	36.7 µM	15.6 µM	29.9 µM
CNC(=O)c1cncc(/C=C/c2c(Cl)cccc2Cl)c1	> 25 µM	> 25 µM	> 25 µM	> 25 µM	> 22.4 µM	> 25 µM	> 25 µM	> 25 µM	2.31 µM	> 25 µM	> 17.9 µM	> 25 µM	8.14 µM	> 25 µM	> 22.4 µM	> 25 µM	6.88 µM	> 25 µM	> 25 µM	> 25 µM
NCCSC(C[N+](=O)[O-])c1ccccc1Cl (stereo unspecified)	2.1 µM	4.03 µM	1.18 µM	3.08 µM	2.21 µM	5.97 µM	8.09 µM	23.1 µM	12.5 µM	47.2 µM	2.89 µM	9.67 µM	2.96 µM	> 23.7 µM	1.82 µM	3.42 µM	1.87 µM	5.42 µM	1.85 µM	3.81 µM
CCc1c2c(nc3ccc(OCc4ccc(B5OC(C)(C)C(C)(C)O5)cc4)cc13)-c1cc3c(c(=O)n1C2)COC(=O)[C@]3(O)CC	0.185 µM	> 100 µM	0.0169 µM	> 100 µM	0.331 µM	> 100 µM	< 0.01 µM		0.0378 µM	0.963 µM	0.134 µM	> 100 µM	0.0562 µM	> 100 µM	0.137 µM	1.62 µM	0.101 µM	> 100 µM	< 0.01 µM	
CCc1nc(N)nc(N)c1C#CC(C)c1cc(-c2ccnc(C)c2)c2oc(C)nc2c1 (stereo unspecified)	0.0206 µM	5.95 µM	< 0.01 µM	10.9 µM	< 0.01 µM	11.3 µM	< 0.01 µM	5.92 µM	0.703 µM	11.4 µM	< 0.01 µM	6.23 µM	< 0.01 µM	31.3 µM	0.0201 µM	10.9 µM	< 0.01 µM	12.3 µM	< 0.01 µM	11.9 µM
COc1cc2nncc(SCc3ccc(Cl)c(Cl)c3)c2cc1OC		> 100 µM		> 100 µM		> 100 µM		> 100 µM		> 100 µM		> 100 µM		> 100 µM		> 100 µM		> 100 µM		> 100 µM
Nc1ccccc1C#C/C=C\C#Cc1ccccc1F	2.25 µM	5.26 µM	3.52 µM	16.1 µM	5.17 µM	19.7 µM	6.66 µM	20.8 µM	17.9 µM	> 100 µM	5.34 µM	28.8 µM	3.38 µM	> 100 µM	2.1 µM	11 µM	2.05 µM	4.44 µM	6.44 µM	20.7 µM
Oc1ccc(O)c2c1C1(Cl)C(Cl)=C(Cl)C2(Cl)C1(Cl)Cl	8.7 µM	21.3 µM	3.07 µM	12.8 µM	4.15 µM	26.1 µM	8.27 µM	21.2 µM	1.51 µM	7.13 µM	5.73 µM	20.2 µM	2.94 µM	93 µM	2.44 µM	7.62 µM	1.7 µM	4.86 µM	5.76 µM	20 µM
COc1cc(NC(=O)c2cc(O)c(C/C=C(\C)CCC=C(C)C)c(O)c2)cc2c1O[C@]1(C)CC[C@@H](O)C(C)(C)[C@H]1C2	2.21 µM	7.22 µM	2.07 µM	12.3 µM	2.09 µM	7.53 µM	1.58 µM	8.22 µM	0.627 µM	3.89 µM	2.45 µM	11.1 µM	0.957 µM	4.88 µM	1.63 µM	4.44 µM	2.01 µM	8.19 µM	0.724 µM	5.33 µM
Nc1nc(Cl)nc2c1ncn2[C@@H]1O[C@H](COS(N)(=O)=O)[C@@H](O)[C@H]1O	0.0191 µM and 0.0226 µM	0.0382 µM and 0.0498 µM	0.0183 µM and 0.0251 µM	0.104 µM and 0.0767 µM	0.0272 µM and 0.0313 µM	0.0881 µM and 0.168 µM	0.00684 µM	0.0333 µM	0.0159 µM and 0.0206 µM	0.0454 µM and 0.056 µM	0.0304 µM and 0.0308 µM	0.0915 µM and 0.0964 µM	0.017 µM and 0.0199 µM	0.118 µM	0.0232 µM and 0.0321 µM	0.0707 µM and 0.166 µM	0.0171 µM and 0.0176 µM	0.0327 µM and 0.0341 µM	0.0222 µM and 0.0231 µM	0.0658 µM and 0.0663 µM
COc1ccc(OC)c(/C=N/N=C2\C(=O)Nc3c(Cl)cc(Cl)cc32)c1		> 100 µM		> 100 µM		> 100 µM		79.4 µM		> 100 µM		> 100 µM		> 100 µM		> 100 µM		> 100 µM		> 100 µM
Cc1ccc(-c2c3c(N)c4c(nc3nc3c2c(C)nn3-c2ccccc2)CCC4)cc1	3 µM	8.43 µM	1.57 µM	3.41 µM	2.11 µM	5.15 µM	2.7 µM	8.23 µM	15.7 µM	36.3 µM	4.02 µM	16.2 µM	2.42 µM	6.56 µM	4.4 µM	16 µM	17.1 µM	34.2 µM	1.95 µM	4.01 µM
O=C1NC(c2ccccc2)N=C2Oc3ccccc3C=C12 (stereo unspecified)		0.238 µM		> 100 µM		> 100 µM		> 66.7 µM		> 100 µM		> 74.4 µM		> 100 µM		> 22.8 µM		0.138 µM		> 100 µM
O=C1OC(OC/C(Br)=C(/Br)COC2OC(=O)C(Cl)=C2Cl)C(Cl)=C1Cl (stereo unspecified)		34.1 µM		10 µM		27.1 µM		28.8 µM		29.2 µM		28.2 µM		5.85 µM		21.8 µM		24.2 µM		24.2 µM
Cc1ccccc1NC(=O)c1cc2ccccc2cc1O	4.4 µM	26.2 µM	3.45 µM	15.1 µM	3.84 µM	> 100 µM	2.47 µM	7.88 µM	2.39 µM	5.94 µM	2.65 µM	30.3 µM	5.23 µM	> 100 µM	3.36 µM	> 100 µM	3.04 µM	> 100 µM	3.56 µM	> 100 µM
c1ccc(/C(=N\Nc2ccc3ccccc3n2)c2ccccn2)cc1	0.904 µM	16.7 µM	0.436 µM	5.62 µM	0.417 µM	14.8 µM	1.21 µM	15.9 µM	0.551 µM	19.8 µM	0.433 µM	3.23 µM	0.649 µM	6.52 µM	0.989 µM	13.5 µM	0.66 µM	16.7 µM	0.592 µM	13 µM
Cn1c2ccccc2c2[nH]c3ccccc3c(=O)c21		> 100 µM		> 100 µM		> 100 µM		> 100 µM		> 100 µM		> 100 µM		> 100 µM		> 100 µM		> 100 µM		> 100 µM
CC(C)=CCc1cc(C2COc3cc4c(c(O)c3C2=O)C=CC(C)(C)O4)c(O)cc1O (stereo unspecified)		32.7 µM		54.5 µM		26.9 µM		32.3 µM		33.1 µM		36.4 µM		10.7 µM		32.7 µM		33.4 µM		35.7 µM
Nc1cc(-c2ccccc2)n(C(=O)Nc2ccc(Oc3ccccc3)cc2)n1	> 100 µM	> 100 µM	53.5 µM	> 100 µM	> 100 µM	> 100 µM	30.2 µM	> 100 µM	24.2 µM	> 100 µM	36 µM	> 100 µM	> 100 µM	> 100 µM	> 100 µM	> 100 µM	> 100 µM	> 100 µM	32.1 µM	> 100 µM
O=C(Cn1c2ccccc2c2ccncc21)N/N=C\c1ccc2ccccc2c1	35.9 µM	> 100 µM	3.51 µM	15 µM	14.7 µM	> 100 µM	17.3 µM	39.3 µM	12.4 µM	36.7 µM	13 µM	38.3 µM	24.7 µM	> 100 µM	29.6 µM	> 100 µM	17.1 µM	63.3 µM	14.5 µM	29.5 µM
Cc1cn(Cc2ccccc2CCl)c(=O)n(Cc2ccccc2CCl)c1=O	1.5 µM	2.95 µM	1.55 µM	3.18 µM	1.96 µM	4.43 µM	2.31 µM	4.13 µM	1.86 µM	3.62 µM	0.53 µM	2.25 µM	3.19 µM	10 µM	1.99 µM	4.48 µM	1.97 µM	4.07 µM	1.57 µM	3.1 µM

Reference: PubChem BioAssay (NCI)
